Test results: patent US6365574B2, “Ethanolate of azithromycin, process for manufacture, and pharmaceutical compositions thereof” (Teva Pharmaceutical Industries Ltd., priority 1998, dated 2002)
“Also recorded” adds a separate entry of the source. Where two headings read alike, the source gives them in different places.

How the values were obtained:
[1] = cited from earlier work
[2] = Hygroscopicity profile: controlled humidity chambers for two weeks, then Karl Fisher analysis of water content; assay type: physicochemical; conditions: compared with azithromycin monohydrate over a range of relative humidity (FIG. 1); monohydrate data from EP 298,650
Text: Hygroscopicity profiles were obtained by maintaining samples in controlled humidity chambers for a period of two weeks, followed by Karl Fisher analysis of water content.

Substance	hygroscopicity ([1]; according to EP 298,650)	further results
9-deoxo-9a-aza-9a-methyl-9a-homoerythromycin A		hygroscopicity ([1]; according to CN 1,093,370): less hygroscopic than the dehydrate described in EP 298,650
9-deoxo-9a-aza-9a-methyl-9a-homoerythromycin A [dehydrate form of azithromycin]	less hygroscopic than the previously known monohydrate	
9-deoxo-9a-aza-9a-methyl-9a-homoerythromycin A [ethanolate of azithromycin]		hygroscopicity [2]: less hygroscopic than azithromycin monohydrate; also recorded: less hygroscopic than the prior art monohydrate
9-deoxo-9a-aza-9a-methyl-9a-homoerythromycin A [monohydrate]	hygroscopic	
